Source: PubChem BioAssay (NCI)
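48-hour exposure; five concentrations; linearly interpolated endpoints. Here, GI50 denotes the concentration required for 50% inhibition of growth. TGI marks complete inhibition of growth.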

What was measured:
Test in all cases: growth of human tumour cells (NCI), 48 h
SF-295 CNS = test system: SF-295 CNS
HOP-92 NSCLC = test system: HOP-92 NSCLC
LOX IMVI melanoma = test system: LOX IMVI melanoma
T-47D breast = test system: T-47D breast
MDA-MB-435 = test system: MDA-MB-435
NCI/ADR-RES ovarian = test system: NCI/ADR-RES ovarian
NCI-H23 lung = test system: NCI-H23 lung
HS 578T breast = test system: HS 578T breast
MCF7 breast = test system: MCF7 breast
786-0 renal = test system: 786-0 renal
SK-MEL-5 melanoma = test system: SK-MEL-5 melanoma
UACC-257 melanoma = test system: UACC-257 melanoma
OVCAR-3 ovarian = test system: OVCAR-3 ovarian
TK-10 renal = test system: TK-10 renal
DU-145 prostate = test system: DU-145 prostate
SF-268 CNS = test system: SF-268 CNS
IGROV1 ovarian = test system: IGROV1 ovarian
HCC-2998 colon = test system: HCC-2998 colon
A549 NSCLC = test system: A549 NSCLC
SR leukemia = test system: SR leukemia
NCI-H460 lung = test system: NCI-H460 lung
CCRF-CEM leukemia = test system: CCRF-CEM leukemia
CAKI-1 renal = test system: CAKI-1 renal
COLO 205 colon = test system: COLO 205 colon
HOP-62 NSCLC = test system: HOP-62 NSCLC
HT29 colon = test system: HT29 colon
OVCAR-4 ovarian = test system: OVCAR-4 ovarian
SW-620 colon = test system: SW-620 colon
SN12C renal = test system: SN12C renal
SK-MEL-28 melanoma = test system: SK-MEL-28 melanoma
K-562 leukemia = test system: K-562 leukemia
HCT-116 colon = test system: HCT-116 colon
MALME-3M melanoma = test system: MALME-3M melanoma
SK-OV-3 ovarian = test system: SK-OV-3 ovarian
HCT-15 colon = test system: HCT-15 colon
ACHN renal = test system: ACHN renal
SNB-19 CNS = test system: SNB-19 CNS
UACC-62 melanoma = test system: UACC-62 melanoma
UO-31 renal = test system: UO-31 renal
SF-539 CNS = test system: SF-539 CNS
HL-60(TB) leukemia = test system: HL-60(TB) leukemia
M14 melanoma = test system: M14 melanoma
NCI-H226 lung = test system: NCI-H226 lung
RXF 393 renal = test system: RXF 393 renal
KM12 colon = test system: KM12 colon
OVCAR-8 ovarian = test system: OVCAR-8 ovarian
OVCAR-5 ovarian = test system: OVCAR-5 ovarian
BT-549 breast = test system: BT-549 breast
SNB-75 CNS = test system: SNB-75 CNS
MDA-MB-231 breast = test system: MDA-MB-231 breast
MOLT-4 leukemia = test system: MOLT-4 leukemia
NCI-H522 lung = test system: NCI-H522 lung
A498 renal = test system: A498 renal
U251 CNS = test system: U251 CNS
RPMI-8226 leukemia = test system: RPMI-8226 leukemia

In the case of COc1cc(/C=C/C(=O)Nc2ccc3c(c2)/C(=C\c2cccn2C)C(=O)N3)cc(OC)c1OC, the GI50 (SF-295 CNS) is reported as 5.15 µM, the TGI (SF-295 CNS) is reported as 22 µM and the GI50 (HOP-92 NSCLC) is reported as 1.54 µM. It also gave a TGI (HOP-92 NSCLC) of 8.46 µM, a GI50 (LOX IMVI melanoma) of 4.21 µM and a TGI (LOX IMVI melanoma) of 20.5 µM. It also gave a GI50 (T-47D breast) of 1.59 µM, a TGI (T-47D breast) of 13.9 µM and a GI50 (MDA-MB-435) of 6.41 µM. For the same compound, the TGI (MDA-MB-435) was 31.4 µM, the GI50 (NCI/ADR-RES ovarian) was 67.7 µM and the TGI (NCI/ADR-RES ovarian) was > 100 µM. For the same compound, the GI50 (NCI-H23 lung) was 5.01 µM, the TGI (NCI-H23 lung) was 27.2 µM and the GI50 (HS 578T breast) was 3.34 µM. For the same compound, the TGI (HS 578T breast) was > 100 µM, the GI50 (MCF7 breast) was 1.15 µM and the TGI (MCF7 breast) was 6.7 µM. For the same compound, the GI50 (786-0 renal) was 8.69 µM, the TGI (786-0 renal) was 98.9 µM and the GI50 (SK-MEL-5 melanoma) was 1.92 µM. For the same compound, the TGI (SK-MEL-5 melanoma) was 6.68 µM, the GI50 (UACC-257 melanoma) was 10.1 µM and the TGI (UACC-257 melanoma) was 31.2 µM. For the same compound, the GI50 (OVCAR-3 ovarian) was 5.5 µM, the TGI (OVCAR-3 ovarian) was 22.3 µM and the GI50 (TK-10 renal) was 3.68 µM. For the same compound, the TGI (TK-10 renal) was 18.1 µM, the GI50 (DU-145 prostate) was 7.9 µM and the TGI (DU-145 prostate) was > 100 µM. For the same compound, the GI50 (SF-268 CNS) was 8.19 µM, the TGI (SF-268 CNS) was 35.9 µM and the GI50 (IGROV1 ovarian) was 9.12 µM. The TGI (IGROV1 ovarian) was 70.9 µM, the GI50 (HCC-2998 colon) was 5.34 µM and the TGI (HCC-2998 colon) was 20.9 µM. For the same compound, the GI50 (A549 NSCLC) was 4.94 µM, the TGI (A549 NSCLC) was > 100 µM and the GI50 (SR leukemia) was 1.91 µM. For the same compound, the TGI (SR leukemia) was 48.9 µM, the GI50 (NCI-H460 lung) was 4.52 µM and the TGI (NCI-H460 lung) was 76.8 µM. It also gave a GI50 (CCRF-CEM leukemia) of 2.47 µM, a TGI (CCRF-CEM leukemia) of 33.5 µM and a GI50 (CAKI-1 renal) of 4.95 µM. The TGI (CAKI-1 renal) was > 100 µM, the GI50 (COLO 205 colon) was 3.51 µM and the TGI (COLO 205 colon) was 14.2 µM. It also gave a GI50 (HOP-62 NSCLC) of 3.71 µM, a TGI (HOP-62 NSCLC) of 32 µM and a GI50 (HT29 colon) of 3.45 µM. The TGI (HT29 colon) was 16.7 µM, the GI50 (OVCAR-4 ovarian) was 4.43 µM and the TGI (OVCAR-4 ovarian) was > 100 µM. The GI50 (SW-620 colon) was 11.4 µM, the TGI (SW-620 colon) was 46.5 µM and the GI50 (SN12C renal) was 3.17 µM. It also gave a TGI (SN12C renal) of 59.8 µM, a GI50 (SK-MEL-28 melanoma) of 4.03 µM and a TGI (SK-MEL-28 melanoma) of 17.7 µM. For the same compound, the GI50 (K-562 leukemia) was 3.06 µM, the TGI (K-562 leukemia) was > 100 µM and the GI50 (HCT-116 colon) was 4.68 µM. For the same compound, the TGI (HCT-116 colon) was 29.2 µM, the GI50 (MALME-3M melanoma) was 7.34 µM and the TGI (MALME-3M melanoma) was 27 µM. It also gave a GI50 (SK-OV-3 ovarian) of 8.35 µM, a TGI (SK-OV-3 ovarian) of 58.8 µM and a GI50 (HCT-15 colon) of 3.83 µM. For the same compound, the TGI (HCT-15 colon) was > 100 µM, the GI50 (ACHN renal) was 6.05 µM and the TGI (ACHN renal) was 53.9 µM. The GI50 (SNB-19 CNS) was 3.89 µM, the TGI (SNB-19 CNS) was > 100 µM and the GI50 (UACC-62 melanoma) was 3.45 µM. The TGI (UACC-62 melanoma) was 33.7 µM, the GI50 (UO-31 renal) was 3.47 µM and the TGI (UO-31 renal) was 33.3 µM. It also gave a GI50 (SF-539 CNS) of 5.15 µM, a TGI (SF-539 CNS) of 19.8 µM and a GI50 (HL-60(TB) leukemia) of 2.48 µM. For the same compound, the TGI (HL-60(TB) leukemia) was 6.45 µM, the GI50 (M14 melanoma) was 6.7 µM and the TGI (M14 melanoma) was 45.7 µM. For the same compound, the GI50 (NCI-H226 lung) was 8.14 µM, the TGI (NCI-H226 lung) was 32 µM and the GI50 (RXF 393 renal) was 4.99 µM. It also gave a TGI (RXF 393 renal) of 19.7 µM, a GI50 (KM12 colon) of 3.2 µM and a TGI (KM12 colon) of 12.9 µM. For the same compound, the GI50 (OVCAR-8 ovarian) was 3.75 µM, the TGI (OVCAR-8 ovarian) was > 100 µM and the GI50 (OVCAR-5 ovarian) was 16.6 µM. It also gave a TGI (OVCAR-5 ovarian) of 35.2 µM, a GI50 (BT-549 breast) of 6.33 µM and a TGI (BT-549 breast) of 24.9 µM. The GI50 (SNB-75 CNS) was 2.15 µM, the TGI (SNB-75 CNS) was 18.5 µM and the GI50 (MDA-MB-231 breast) was 2.3 µM. It also gave a TGI (MDA-MB-231 breast) of 17.8 µM, a GI50 (MOLT-4 leukemia) of 4 µM and a TGI (MOLT-4 leukemia) of 82.4 µM. For the same compound, the GI50 (NCI-H522 lung) was 2.41 µM, the TGI (NCI-H522 lung) was 11.7 µM and the GI50 (A498 renal) was 2.65 µM. The TGI (A498 renal) was 17.6 µM, the GI50 (U251 CNS) was 3.41 µM and the TGI (U251 CNS) was 20 µM. It also gave a GI50 (RPMI-8226 leukemia) of 1.69 µM and a TGI (RPMI-8226 leukemia) of 4.04 µM.
